Publication PMC9505734, “Design, Synthesis, and Evaluation of a Set of Carboxylic Acid and Phosphate Prodrugs Derived from HBV Capsid Protein Allosteric Modulator NVR 3-778” (Molecules, 2022)
In brackets after ≈: the same amount, converted by molar mass. Structures can show the parent of a compound that is named as a salt. Where two headings read alike, the source gives them in different places.

What was measured:
[1] = Cytotoxicity assay (WST, Cell Counting Kit-8); assay type: cell-based; conditions: human, Hep38.7-Tet cells, WST method (CCK-8); read-out: CC50: the concentration that kills 50% of Hep38.7-Tet cells
Experimental: (§1) The target compounds N5-N8 were evaluated for their antiviral potency against HBV replication, as well as cytotoxicity in Hep38.7-Tet cells, which reproduces HBV replication from a chromosome-integrated HBV transgene under depletion of tetracycline from the medium. The 50% effective concentration (EC50) for anti-HBV activity, 50% cytotoxic concentration (CC50), and selectivity index (SI) calculated by CC50/EC50 ratio are shown in Table 1.
(§2) The WST assays were performed by using Cell Counting Kit-8 (CCK-8) (DOJINDO) according to the manufacturer’s protocol. CCK-8 solution was added to the cells, which were incubated at 37 °C for 15 min and the absorbance at 450 nm was measured.

[2] = system: HBV replication in Hep38.7-Tet cells; experiment: In vitro anti-HBV assay: inhibition of HBV replication (HBV DNA in culture supernatant, real-time PCR); assay type: cell-based, Hepatitis B virus; conditions: for EC50: Hepatitis B virus, 144 h, 6 days treatment, read-out: EC50: the concentration of 50% inhibition for HBV DNA in Hep38.7-Tet cells supernatant
Experimental: as §1
Hep38.7-Tet cells were cultured with DMEM/F-12/GlutaMAX supplemented with 10% fetal bovine serum, and 10 mM HEPES, 200 unit/mL penicillin, 200 µg/mL streptomycin, 5 µg/mL insulin, and 400 ng/mL tetracycline were added at 37 °C in 5% CO2. Tetracycline was removed when inducing HBV replication. Three days after seeding the cells, the cells were treated with or without compounds for 6 days and the culture supernatants were recovered to quantify HBV DNA using the primers 5′-[…]-3′, 5′-[…]-3′, and a probe 5′-FAM-[…]-TAMRA-3′ by real-time fluorescence quantitative PCR, as described.

[3] = Pharmacokinetic experiment after oral administration in rats; assay type: in vivo, SD rats; conditions: for MRT last: read-out: MRT0-last
Experimental: In order to explore the metabolism and bioavailability of prodrug in vivo after oral administration, the main pharmacokinetic parameters were tested. After oral administration of N6 and NVR 3-778 to the two groups of rats, we detected their plasma concentration, respectively. […] The experimental results confirmed that N6 had longer half-life and lower maximum concentration in vivo than NVR 3-778. In addition, N6 was completely transformed into NVR 3-778 in vivo, and both had favorable bioavailability. Compared with NVR3-778, N6 can release drugs more slowly, which can improve the narrow therapeutic window of NVR3-778 to some extent.
Six male SD rats were randomly divided into two groups (administered with N6 and NVR 3-778, respectively). The rats were fasted for 12 h before administration and had free access to water. Animal feed was given 4 h after administration. Compounds N6 and NVR 3-778 were both administered orally at a dose of 10 mg/kg. The corresponding doses of compounds were dissolved in DMSO/PEG400/water (3%/60%/37%, V/V/V) mixed solution to prepare compound oral solutions, respectively, which were filtered through the […]. After intragastric administration, blood was obtained by jugular vein puncture (blood point: before administration and 0.25 h, 0.5 h, 1 h, 2 h, 4 h, 6 h, 10 h, and 24 h after administration). Then 0.25 mL whole blood was collected from each rat at each time point, adding EDTA-K2 for anticoagulation. After collection, the plasma was centrifuged within 1 h (centrifugal condition: 8000 rpm, 5 min, 8 °C). Plasma samples were stored in a refrigerator before analysis. After the experiment, all rats were executed according to the regulations of the Experimental Animal Ethics Committee.

Plasma stability at 4 °C = assay type: in vitro ADME; conditions: rat plasma, 2 µM; for Plasma (4 °C) Residual: after 2 h
Experimental: (§3) In order to verify the stability of prodrug in vitro, the stability of NVR 3-778 and prodrug N6 in plasma at 4 °C and whole blood at 37 °C was tested by the LC-MS/MS and characterization of their stability by peak area. […] A total of 1 mL of rat plasma was placed in ice water at 4 °C and 1 mL of rat whole blood was placed in a water bath at 37 °C for use, respectively. DMSO solution with compound concentration of 1 mM was prepared, and then 10 µL compound solution was added to 90 μL 45% methanol aqueous solution to obtain a quantitative solution with a concentration of 100 µM. A 2 µL compound solution was added to 98 µL 4 °C plasma and 37 °C whole blood, and three portions were prepared to reach the final concentration of 2 µM, respectively. After incubation for two hours, 400 µL termination solution was added. The samples were centrifuged at 4000 rpm for 10 min, and the supernatant was extracted. A total of 100 µL supernatant was mixed with 200 µL ultrapure water and fully shaken for 10 min. The absorption peak area (A) of the sample to be tested was determined by HPLC.

[4] = Water solubility test in phosphate buffers (HPLC); assay type: physicochemical; conditions: for solubility at 1 h: aqueous buffer
Experimental: The compound was dissolved in DMSO to prepare the mother liquor with a concentration of 10 mg/mL, and then 10 µL mother liquor was added to 1 mL phosphate buffer with different pH (pH = 2.0, 7.0, and 7.4). The solution was oscillated for 2 h at 3000 rpm of the vortex oscillator, and the precipitation of compounds was observed visually. The standard curve can be established by increasing the concentration of mother liquor until turbidity appears. The peak area (A) of different concentrations (c) was determined by HPLC. The standard curve was established with the concentration and peak area as abscissa and ordinate, respectively, and the standard curve equation A = kc + b was calculated. The standard curve of NVR 3-778 concentration–peak area was established by measuring the peak area at five concentrations of 1000, 200, 40, 8.0, and 1.6 µg/mL. The standard curve equation was A = 35,268c + 80,359 with R^2 = 0.9999. By measuring the peak area at 4000 µg/mL, 1000 µg/mL, 200 µg/mL, 40 µg/mL, and 8.0 µg/mL, the standard curve of N6 concentration–peak area was established: A = 16,303c + 714,762, R^2 = 0.999. Since the solubility of N6 in phosphate buffer solution (pH = 7.0, 7.4) had exceeded the detector range, the saturated solution of N6 was diluted 10 times for testing. On this basis, the saturated solution (pH = 2.0, 7.0, and 7.4) of phosphate buffer at different pH values was prepared and fully oscillated for 1 h before filtration. Finally, the absorption peak area of the sample at different pH phosphate buffer (pH = 2.0, 7.0, and 7.4) was determined (measured twice). According to the standard curve equation, the corresponding concentration was calculated, which was the solubility of the compound.

[5] = Whole blood stability at 37 °C; assay type: in vitro ADME; conditions: rat whole blood, 2 µM; for Whole Blood (37 °C) Residual: after 2 h
Experimental: as §3

Hep38.7-Tet cells = experiment: Cytotoxicity assay (WST, Cell Counting Kit-8); assay type: cell-based
Experimental: as §1, §2

[6] = parameters: method as in PMID 35268440; conditions: pH = 2.0 ref 16; cited from earlier work
HepG2.2.15 cell line = conditions: read-out: EC50, antiviral activity; cited from earlier work
[7] = male, SD, analyte N6 in plasma after oral N6, 10 mg/kg (18.8 nmol/kg), rat
[8] = male, SD, plasma, 10 mg/kg, analyte NVR 3-778 after oral NVR 3-778, rat

SMILES | melting point | CC50 [1] | SI: selectivity index, the ratio of CC50/EC50 [2] | EC50 [2] | Plasma (4 °C) 0 h (peak area) (Plasma stability at 4 °C) | Plasma (4 °C) 2 h (peak area) (Plasma stability at 4 °C) | Plasma (4 °C) Residual (Plasma stability at 4 °C) | solubility at 1 h ([4]; phosphate buffer pH = 2.0) | solubility at 1 h ([4]; phosphate buffer pH = 7.0) | solubility at 1 h ([4]; phosphate buffer pH = 7.4) | Whole Blood (37 °C) 0 h (peak area) [5] | Whole Blood (37 °C) 2 h (peak area) [5] | Whole Blood (37 °C) Residual [5] | further results
O=C(Nc1cc(F)c(F)c(F)c1)c1ccc(F)c(S(=O)(=O)N2CCC(OP(=O)(O)O)CC2)c1 (as salt: phosphate) [N5, 1-((2-Fluoro-5-((3,4,5-trifluorophenyl)carbamoyl)phenyl)sulfonyl)piperidin-4-yl Dihydrogen Phosphate] | 162 to 164 °C | – | – | – | – | – | – | – | – | – | – | – | – | –
O=C(Nc1cc(F)c(F)c(F)c1)c1ccc(F)c(S(=O)(=O)N2CCC(OP(=O)(O)O)CC2)c1 [N5, 1-((2-Fluoro-5-((3,4,5-trifluorophenyl)carbamoyl)phenyl)sulfonyl)piperidin-4-yl Dihydrogen Phosphate] | – | 13700 ± 1450 nM | 33 | 420 ± 69 nM | – | – | – | – | – | – | – | – | – | –
O=C(O)CCC(=O)OC1CCN(S(=O)(=O)c2cc(C(=O)Nc3cc(F)c(F)c(F)c3)ccc2F)CC1 [N6, 4-((1-((2-fluoro-5-((3,4,5-trifluorophenyl)carbamoyl)phenyl)sulfonyl)piperidin-4-yl)oxy)-4-oxobutanoic acid] | 138 to 140 °C | 12600 ± 1050 nM | 36 | 350 ± 48 nM | 0.88 ± 0.052 | 0.89 ± 0.016 | 101% | 695 µg/mL (≈ 1310 µM) | 7500 µg/mL (≈ 14100 µM) | 4420 µg/mL (≈ 8290 µM) | 0.65 ± 0.048 | 0.70 ± 0.026 | 108% | Tlast ([3]; analyte N6 in plasma after oral N6, 10 mg/kg (18.8 nmol/kg), rat): 1.00 h; AUC(0-t) [3, 7]: 8.13 ± 1.5 ng·h/mL; Cmax [3, 7]: 14.7 ± 1.31 ng/mL; Tmax [3, 7]: 0.25 h; MRT last [3, 7]: 0.487 h; time for complete conversion of N6 into NVR 3-778 ([3]; rats, oral N6 10 mg/kg): ≤ 2 h; water solubility compared with NVR 3-778 ([4]; pH = 2): more than 180 times; water solubility compared with NVR 3-778 ([4]; pH = 7): > 310 times; water solubility compared with NVR 3-778 ([4]; pH = 7.4): > 900 times
O=C(O)CCCC(=O)OC1CCN(S(=O)(=O)c2cc(C(=O)Nc3cc(F)c(F)c(F)c3)ccc2F)CC1 [N7, 5-((1-((2-fluoro-5-((3,4,5-trifluorophenyl)carbamoyl)phenyl)sulfonyl)piperidin-4-yl)oxy)-5-oxopentanoic acid] | 135 to 137 °C | 13000 ± 1740 nM | 46 | 280 ± 24 nM | – | – | – | – | – | – | – | – | – | –
O=C(O)CCCCC(=O)OC1CCN(S(=O)(=O)c2cc(C(=O)Nc3cc(F)c(F)c(F)c3)ccc2F)CC1 [N8, 6-((1-((2-fluoro-5-((3,4,5-trifluorophenyl)carbamoyl)phenyl)sulfonyl)piperidin-4-yl)oxy)-6-oxohexanoic acid] | 132 to 134 °C | > 256000 nM | >731 | 350 ± 32 nM | – | – | – | – | – | – | – | – | – | reduction of toxicity compared with NVR 3-778 (Hep38.7-Tet cells; CC50 in Hep38.7-Tet cells): at least 18 fold
O=C(Nc1cc(F)c(F)c(F)c1)c1ccc(F)c(S(=O)(=O)N2CCC(O)CC2)c1 [NVR 3-778, 4-Fluoro-3-((4-hydroxypiperidin-1-yl)sulfonyl)-N-(3,4,5-trifluorophenyl)benzamide] | – | 12600 ± 210 nM | 36 | 380 ± 47 nM | 0.12 ± 0.0078 | 0.10 ± 0.0066 | 85% | 3.82 µg/mL (≈ 8.83 µM) | 24 µg/mL (≈ 55.6 µM) | 4.84 µg/mL (≈ 11.2 µM) | 0.18 ± 0.016 | 0.16 ± 0.0026 | 91% | Tlast ([3]; analyte NVR 3-778 after oral NVR 3-778, 10 mg/kg (23.1 nmol/kg), rat): 10.0 h; AUC(0-inf) [3, 8]: 3940 ± 948 ng·h/mL; AUC(0-t) [3, 8]: 3890 ± 948 ng·h/mL; Cmax [3, 8]: 1160 ± 261 ng/mL; Tmax [3, 8]: 0.833 ± 0.289 h; MRT inf ([3]; male, SD, plasma, 10 mg/kg, analyte NVR 3-778 after oral NVR 3-778, rat, read-out: MRT0-inf): 2.78 ± 0.144 h; MRT last [3, 8]: 2.67 ± 0.106 h; half-life ([3]; male, SD, plasma, analyte NVR 3-778 after oral NVR 3-778, 10 mg/kg (23.1 nmol/kg), rat): 1.4 ± 0.25 h; water solubility [6]: 3 µg/mL (≈ 6.94 µM); EC50 (HepG2.2.15 cell line): 400 nM; CC50 (Hep38.7-Tet cells; WST method (CCK-8), read-out: CC50: the concentration that kills 50% of Hep38.7-Tet cells): 13600 ± 210 nM
